Measured values from patent US9062124B2, “GIP-based mixed agonists for treatment of metabolic disorders and obesity” (priority 2008, dated 2015).
Where a SMILES comes first, the peptide text is derived from it. Bridges are numbered along the chain shown (N, C = ends). [ ]: non-standard residue; d: D form. Aib = CC(C)(N)C(=O)O

Experiments:
Format in all cases: cell-based
[1] = biological target: T1, GIP receptor (Homo sapiens, UniProt P48546); assay: cAMP synthesis functional assay (firefly luciferase reporter in HEK293 cells), GIP receptor; details: Table 1; relative to the native hormone of the indicated receptor
T1 construct: expressed in transfected cells; host or cells: HEK293
T1 sequence (P48546 22-466): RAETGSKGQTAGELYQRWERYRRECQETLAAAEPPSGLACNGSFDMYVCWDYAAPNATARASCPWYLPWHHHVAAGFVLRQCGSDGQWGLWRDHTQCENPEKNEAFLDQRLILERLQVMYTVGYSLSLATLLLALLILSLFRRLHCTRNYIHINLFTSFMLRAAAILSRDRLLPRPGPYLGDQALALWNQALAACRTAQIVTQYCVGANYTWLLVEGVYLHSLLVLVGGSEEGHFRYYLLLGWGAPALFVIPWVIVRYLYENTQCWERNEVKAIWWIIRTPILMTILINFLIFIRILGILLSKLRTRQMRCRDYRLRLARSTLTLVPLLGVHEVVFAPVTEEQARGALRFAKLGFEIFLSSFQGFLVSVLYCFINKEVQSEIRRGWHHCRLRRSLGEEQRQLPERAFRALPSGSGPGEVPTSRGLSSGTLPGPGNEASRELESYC

[2] = tested on: glucagon receptor, GLP-1 receptor or GIP receptor; assay: Agonist profile across receptors assigned from the cAMP reporter assay data; details: assigned from the in vitro EC50 data of Tables 1-4
[3] = biological target: T2, glucagon receptor (Homo sapiens, UniProt P47871); assay: cAMP synthesis functional assay (firefly luciferase reporter in HEK293 cells), glucagon receptor; details: Table 1; relative to the native hormone of the indicated receptor
T2 construct: expressed in transfected cells; host or cells: HEK293

[4] = biological target: T3, GLP-1 receptor (Homo sapiens, UniProt P43220); assay: cAMP synthesis functional assay (firefly luciferase reporter in HEK293 cells), GLP-1 receptor; details: Table 1; for GLP-1 Receptor relative activity: relative to the native hormone of the indicated receptor; for EC50: GLP-1 Receptor EC50, nM
T3 construct: expressed in transfected cells; host or cells: HEK293
T3 sequence (P43220 24-463, species assumed): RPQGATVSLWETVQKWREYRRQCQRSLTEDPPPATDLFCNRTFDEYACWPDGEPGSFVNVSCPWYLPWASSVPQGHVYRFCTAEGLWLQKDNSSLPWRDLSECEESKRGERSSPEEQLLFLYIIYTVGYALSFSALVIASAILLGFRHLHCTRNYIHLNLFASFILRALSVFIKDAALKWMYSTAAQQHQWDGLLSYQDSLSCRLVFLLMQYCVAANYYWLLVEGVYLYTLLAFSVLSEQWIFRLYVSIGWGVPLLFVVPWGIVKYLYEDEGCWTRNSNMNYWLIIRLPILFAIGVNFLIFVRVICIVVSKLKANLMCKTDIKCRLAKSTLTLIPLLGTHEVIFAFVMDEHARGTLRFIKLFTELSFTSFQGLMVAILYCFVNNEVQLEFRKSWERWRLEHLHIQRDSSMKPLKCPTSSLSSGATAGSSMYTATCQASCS

T2 sequence (P47871 26-477): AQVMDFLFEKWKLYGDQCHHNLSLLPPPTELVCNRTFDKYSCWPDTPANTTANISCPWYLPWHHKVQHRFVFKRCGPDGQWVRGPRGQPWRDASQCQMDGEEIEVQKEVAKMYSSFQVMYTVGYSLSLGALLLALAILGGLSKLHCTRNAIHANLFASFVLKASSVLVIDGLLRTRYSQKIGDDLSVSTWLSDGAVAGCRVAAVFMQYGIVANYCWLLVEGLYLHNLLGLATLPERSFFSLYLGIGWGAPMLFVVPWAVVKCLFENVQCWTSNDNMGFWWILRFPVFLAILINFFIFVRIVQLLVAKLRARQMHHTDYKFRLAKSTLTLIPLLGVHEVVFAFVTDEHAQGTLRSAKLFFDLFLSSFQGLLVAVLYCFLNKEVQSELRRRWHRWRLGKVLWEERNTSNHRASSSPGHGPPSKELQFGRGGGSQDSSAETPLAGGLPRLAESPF

| SMILES | GIP Receptor relative activity [1] [%] | receptor activity profile (glucagon / GLP-1 / GIP agonism) [2] | Glucagon Receptor relative activity [3] [%] | GLP-1 Receptor relative activity [4] [%] | EC50 [4] [nM] |
| --- | --- | --- | --- | --- | --- |
| CC[C@H](C)[C@H](NC(=O)[C@H](Cc1ccccc1)NC(=O)[C@H](CCC(=O)O)NC(=O)[C@@H]1CCCCNC(=O)CC[C@H](NC(=O)[C@H](CC(=O)O)NC(=O)[C@H](CC(C)C)NC(=O)[C@H](Cc2ccc(O)cc2)NC(=O)[C@@H](NC(=O)[C@H](CO)NC(=O)[C@H](Cc2ccc(O)cc2)NC(=O)[C@H](CC(=O)O)NC(=O)[C@H](CO)NC(=O)[C@@H](NC(=O)[C@H](Cc2ccccc2)NC(=O)[C@@H](NC(=O)CNC(=O)[C@H](CCC(N)=O)NC(=O)[C@H](CO)NC(=O)[C@@H](N)Cc2ccc(O)cc2)[C@@H](C)O)[C@@H](C)O)[C@@H](C)CC)C(=O)N[C@@H](CCC(N)=O)C(=O)N[C@@H](C)C(=O)N[C@@H](C)C(=O)N1)C(=O)N[C@@H](C)C(=O)N[C@@H](Cc1c[nH]c2ccccc12)C(=O)N[C@@H](CC(C)C)C(=O)N[C@@H](CC(C)C)C(=O)N[C@@H](C)C(=O)NCC(=O)NCC(=O)N1CCC[C@H]1C(=O)N[C@@H](CO)C(=O)N[C@@H](CO)C(=O)NCC(=O)N[C@@H](C)C(=O)N1CCC[C@H]1C(=O)N1CCC[C@H]1C(=O)N1CCC[C@H]1C(=O)N[C@@H](CO)C(N)=O [mt-147] (H-YSQGTFTSDYSIYLDEQAAKEFIAWLLAGGPSSGAPPPS-NH2; lactam 16-20; N-terminus assumed) | 43.06 | exemplary GLP-1/GIP/glucagon triagonist peptides | 90.52 | 33.87 | – |
| CC[C@H](C)[C@H](NC(=O)[C@H](Cc1ccccc1)NC(=O)[C@H](CCC(=O)O)NC(=O)[C@@H]1CCCCNC(=O)CC[C@H](NC(=O)[C@H](CC(=O)O)NC(=O)[C@H](CC(C)C)NC(=O)[C@H](Cc2ccc(O)cc2)NC(=O)[C@@H](NC(=O)[C@H](CO)NC(=O)[C@H](Cc2ccc(O)cc2)NC(=O)[C@H](CC(=O)O)NC(=O)[C@H](CO)NC(=O)[C@@H](NC(=O)[C@H](Cc2ccccc2)NC(=O)[C@@H](NC(=O)CNC(=O)[C@H](CCC(=O)O)NC(=O)[C@H](CO)NC(=O)[C@@H](N)Cc2ccc(O)cc2)[C@@H](C)O)[C@@H](C)O)[C@@H](C)CC)C(=O)N[C@@H](CCC(N)=O)C(=O)N[C@@H](C)C(=O)N[C@@H](C)C(=O)N1)C(=O)N[C@@H](C)C(=O)N[C@@H](Cc1c[nH]c2ccccc12)C(=O)N[C@@H](CC(C)C)C(=O)N[C@@H](CC(C)C)C(=O)N[C@@H](C)C(=O)NCC(=O)NCC(=O)N1CCC[C@H]1C(=O)N[C@@H](CO)C(=O)N[C@@H](CO)C(=O)NCC(=O)N[C@@H](C)C(=O)N1CCC[C@H]1C(=O)N1CCC[C@H]1C(=O)N1CCC[C@H]1C(=O)N[C@@H](CO)C(N)=O [mt-148] (H-YSEGTFTSDYSIYLDEQAAKEFIAWLLAGGPSSGAPPPS-NH2; lactam 16-20; N-terminus assumed) | 65.26 | exemplary GLP-1/GIP co-agonist peptides | 2.14 | 36.22 | 0.098 |
| CC[C@H](C)[C@H](NC(=O)[C@H](CO)NC(=O)[C@H](Cc1ccc(O)cc1)NC(=O)[C@H](CC(=O)O)NC(=O)[C@H](CO)NC(=O)[C@@H](NC(=O)[C@H](Cc1ccccc1)NC(=O)[C@@H](NC(=O)CNC(=O)[C@H](CCC(=O)O)NC(=O)[C@H](C)NC(=O)[C@@H](N)Cc1ccc(O)cc1)[C@@H](C)O)[C@@H](C)O)C(=O)N[C@@H](Cc1ccc(O)cc1)C(=O)N[C@@H](CC(C)C)C(=O)N[C@@H](CC(=O)O)C(=O)N[C@H]1CCC(=O)NCCCC[C@@H](C(=O)N[C@@H](CCC(=O)O)C(=O)N[C@@H](Cc2ccccc2)C(=O)N[C@H](C(=O)N[C@@H](CC(N)=O)C(=O)N[C@@H](Cc2c[nH]c3ccccc23)C(=O)N[C@@H](CC(C)C)C(=O)N[C@@H](CC(C)C)C(=O)N[C@@H](C)C(=O)NCC(=O)NCC(=O)N2CCC[C@H]2C(=O)N[C@@H](CO)C(=O)N[C@@H](CO)C(=O)NCC(=O)N[C@@H](C)C(=O)N2CCC[C@H]2C(=O)N2CCC[C@H]2C(=O)N2CCC[C@H]2C(=O)N[C@@H](CO)C(N)=O)C(C)C)NC(=O)[C@H](C)NC(=O)[C@H](C)NC(=O)[C@H](CCC(N)=O)NC1=O [mt-149] (H-YAEGTFTSDYSIYLDEQAAKEFVNWLLAGGPSSGAPPPS-NH2; lactam 16-20; N-terminus assumed) | 91.18 | exemplary GLP-1/GIP co-agonist peptides | 0.64 | 97.53 | 0.036 |
| CC[C@H](C)[C@H](NC(=O)[C@H](Cc1ccccc1)NC(=O)[C@H](CCC(=O)O)NC(=O)[C@@H]1CCCCNC(=O)CC[C@H](NC(=O)[C@H](CC(=O)O)NC(=O)[C@H](CC(C)C)NC(=O)[C@H](Cc2ccc(O)cc2)NC(=O)[C@H](CCCCN)NC(=O)[C@H](CO)NC(=O)[C@H](Cc2ccc(O)cc2)NC(=O)[C@H](CC(=O)O)NC(=O)[C@H](CO)NC(=O)[C@@H](NC(=O)[C@H](Cc2ccccc2)NC(=O)[C@@H](NC(=O)CNC(=O)[C@H](CCC(N)=O)NC(=O)[C@H](CO)NC(=O)[C@@H](N)Cc2ccc(O)cc2)[C@@H](C)O)[C@@H](C)O)C(=O)N[C@@H](CCC(N)=O)C(=O)N[C@@H](C)C(=O)N[C@@H](C)C(=O)N1)C(=O)N[C@@H](C)C(=O)N[C@@H](Cc1c[nH]c2ccccc12)C(=O)N[C@@H](CC(C)C)C(=O)N[C@@H](CC(C)C)C(=O)N[C@@H](C)C(=O)NCC(=O)NCC(=O)N1CCC[C@H]1C(=O)N[C@@H](CO)C(=O)N[C@@H](CO)C(=O)NCC(=O)N[C@@H](C)C(=O)N1CCC[C@H]1C(=O)N1CCC[C@H]1C(=O)N1CCC[C@H]1C(=O)N[C@@H](CO)C(N)=O [mt-151] (H-YSQGTFTSDYSKYLDEQAAKEFIAWLLAGGPSSGAPPPS-NH2; lactam 16-20; N-terminus assumed) | 7.28 | exemplary GLP-1/GIP/glucagon triagonist peptides | 30.16 | 30.16 | – |
| CC[C@H](C)[C@H](NC(=O)[C@H](CO)NC(=O)[C@H](Cc1ccc(O)cc1)NC(=O)[C@H](CC(=O)O)NC(=O)[C@H](CO)NC(=O)[C@@H](NC(=O)[C@H](Cc1ccccc1)NC(=O)[C@@H](NC(=O)CNC(=O)[C@H](CCC(N)=O)NC(=O)C(C)(C)NC(=O)[C@@H](N)Cc1ccc(O)cc1)[C@@H](C)O)[C@@H](C)O)C(=O)N[C@@H](Cc1ccc(O)cc1)C(=O)N[C@@H](CC(C)C)C(=O)N[C@@H](CC(=O)O)C(=O)N[C@H]1CCC(=O)NCCCC[C@@H](C(=O)N[C@@H](CCC(=O)O)C(=O)N[C@@H](Cc2ccccc2)C(=O)N[C@H](C(=O)N[C@@H](CC(N)=O)C(=O)N[C@@H](Cc2c[nH]c3ccccc23)C(=O)N[C@@H](CC(C)C)C(=O)N[C@@H](CC(C)C)C(=O)N[C@@H](C)C(=O)NCC(=O)NCC(=O)N2CCC[C@H]2C(=O)N[C@@H](CO)C(=O)N[C@@H](CO)C(=O)NCC(=O)N[C@@H](C)C(=O)N2CCC[C@H]2C(=O)N2CCC[C@H]2C(=O)N2CCC[C@H]2C(=O)N[C@@H](CO)C(N)=O)C(C)C)NC(=O)[C@H](C)NC(=O)[C@H](C)NC(=O)[C@H](CCC(N)=O)NC1=O [mt-152] (H-Y[Aib]QGTFTSDYSIYLDEQAAKEFVNWLLAGGPSSGAPPPS-NH2; lactam 16-20; N-terminus assumed) | 41.19 | exemplary GLP-1/GIP/glucagon triagonist peptides | 36.52 | 168.75 | – |
| CC[C@H](C)[C@H](NC(=O)[C@H](CO)NC(=O)[C@H](Cc1ccc(O)cc1)NC(=O)[C@H](CC(=O)O)NC(=O)[C@H](CO)NC(=O)[C@@H](NC(=O)[C@H](Cc1ccccc1)NC(=O)[C@@H](NC(=O)CNC(=O)[C@H](CCC(N)=O)NC(=O)C(C)(C)NC(=O)[C@@H](N)Cc1ccc(O)cc1)[C@@H](C)O)[C@@H](C)O)C(=O)N[C@@H](Cc1ccc(O)cc1)C(=O)N[C@@H](CC(C)C)C(=O)N[C@@H](CC(=O)O)C(=O)N[C@H]1CCC(=O)NCCCC[C@@H](C(=O)N[C@@H](CCC(=O)O)C(=O)N[C@@H](Cc2ccccc2)C(=O)N[C@H](C(=O)N[C@@H](CS)C(=O)N[C@@H](Cc2c[nH]c3ccccc23)C(=O)N[C@@H](CC(C)C)C(=O)N[C@@H](CC(C)C)C(=O)N[C@@H](C)C(=O)NCC(=O)NCC(=O)N2CCC[C@H]2C(=O)N[C@@H](CO)C(=O)N[C@@H](CO)C(=O)NCC(=O)N[C@@H](C)C(=O)N2CCC[C@H]2C(=O)N2CCC[C@H]2C(=O)N2CCC[C@H]2C(=O)N[C@@H](CO)C(N)=O)C(C)C)NC(=O)[C@H](C)NC(=O)[C@H](C)NC(=O)[C@H](CCC(N)=O)NC1=O [mt-158] (H-Y[Aib]QGTFTSDYSIYLDEQAAKEFVCWLLAGGPSSGAPPPS-NH2; lactam 16-20; N-terminus assumed) | 17.82 | exemplary GLP-1/GIP/glucagon triagonist peptides | 14.90 | 102.94 | – |
